Laboratory results from ChEMBL document CHEMBL1126384, “Synthesis of reversed hydroxamic acids of indomethacin: dual inhibitors of cyclooxygenase and 5-lipoxygenase” (Bioorg Med Chem Lett, 1992).

What was measured:
[1] = molecular target: T1, Cyclooxygenase (Rattus norvegicus, UniProt P35355+Q63921); conditions: rbl-1
T1 sequence (P35355 whole entry): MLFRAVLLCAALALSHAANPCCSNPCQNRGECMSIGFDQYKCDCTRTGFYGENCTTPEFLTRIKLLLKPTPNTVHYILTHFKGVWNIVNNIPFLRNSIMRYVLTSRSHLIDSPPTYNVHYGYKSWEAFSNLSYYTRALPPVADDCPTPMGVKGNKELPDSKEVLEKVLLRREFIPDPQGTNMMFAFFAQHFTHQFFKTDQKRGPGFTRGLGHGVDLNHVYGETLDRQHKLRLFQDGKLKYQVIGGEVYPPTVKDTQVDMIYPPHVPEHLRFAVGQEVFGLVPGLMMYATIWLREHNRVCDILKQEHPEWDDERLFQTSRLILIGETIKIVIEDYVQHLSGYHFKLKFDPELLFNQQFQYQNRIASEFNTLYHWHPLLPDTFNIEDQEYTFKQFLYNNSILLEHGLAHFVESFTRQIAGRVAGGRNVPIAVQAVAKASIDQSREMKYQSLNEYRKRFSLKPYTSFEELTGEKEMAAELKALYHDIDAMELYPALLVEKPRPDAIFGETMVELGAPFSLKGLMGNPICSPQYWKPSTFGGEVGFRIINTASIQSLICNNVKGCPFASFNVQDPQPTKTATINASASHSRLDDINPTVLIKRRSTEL
T1 sequence (Q63921 whole entry): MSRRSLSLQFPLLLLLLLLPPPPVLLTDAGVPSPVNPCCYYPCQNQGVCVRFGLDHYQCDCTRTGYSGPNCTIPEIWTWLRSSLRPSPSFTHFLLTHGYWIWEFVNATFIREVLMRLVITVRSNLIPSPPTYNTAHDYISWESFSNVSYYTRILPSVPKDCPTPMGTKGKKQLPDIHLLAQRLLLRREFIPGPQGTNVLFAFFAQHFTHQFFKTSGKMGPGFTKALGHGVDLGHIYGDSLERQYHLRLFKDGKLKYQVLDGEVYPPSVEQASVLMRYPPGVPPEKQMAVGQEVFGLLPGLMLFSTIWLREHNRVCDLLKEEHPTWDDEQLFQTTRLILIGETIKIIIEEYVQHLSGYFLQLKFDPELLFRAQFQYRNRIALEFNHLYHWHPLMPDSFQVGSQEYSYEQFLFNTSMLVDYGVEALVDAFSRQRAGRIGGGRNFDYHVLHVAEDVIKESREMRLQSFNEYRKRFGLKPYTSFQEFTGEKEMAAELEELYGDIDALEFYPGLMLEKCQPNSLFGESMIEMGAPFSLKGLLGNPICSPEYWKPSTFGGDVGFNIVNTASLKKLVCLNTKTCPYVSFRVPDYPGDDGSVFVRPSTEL
Description: Tested for inhibition of cyclooxygenase (ARBC) in calcium-stimulated rat basophilic leukemia cells(RBL-1)

[2] = molecular target: T2, Polyunsaturated fatty acid 5-lipoxygenase (Rattus norvegicus, UniProt P12527); test: Tested for inhibition of 5-Lipoxygenase (ARBL) in calcium-stimulated rat basophilic leukemia cells(RBL-1); type: cell-based
T2 sequence (P12527 whole entry): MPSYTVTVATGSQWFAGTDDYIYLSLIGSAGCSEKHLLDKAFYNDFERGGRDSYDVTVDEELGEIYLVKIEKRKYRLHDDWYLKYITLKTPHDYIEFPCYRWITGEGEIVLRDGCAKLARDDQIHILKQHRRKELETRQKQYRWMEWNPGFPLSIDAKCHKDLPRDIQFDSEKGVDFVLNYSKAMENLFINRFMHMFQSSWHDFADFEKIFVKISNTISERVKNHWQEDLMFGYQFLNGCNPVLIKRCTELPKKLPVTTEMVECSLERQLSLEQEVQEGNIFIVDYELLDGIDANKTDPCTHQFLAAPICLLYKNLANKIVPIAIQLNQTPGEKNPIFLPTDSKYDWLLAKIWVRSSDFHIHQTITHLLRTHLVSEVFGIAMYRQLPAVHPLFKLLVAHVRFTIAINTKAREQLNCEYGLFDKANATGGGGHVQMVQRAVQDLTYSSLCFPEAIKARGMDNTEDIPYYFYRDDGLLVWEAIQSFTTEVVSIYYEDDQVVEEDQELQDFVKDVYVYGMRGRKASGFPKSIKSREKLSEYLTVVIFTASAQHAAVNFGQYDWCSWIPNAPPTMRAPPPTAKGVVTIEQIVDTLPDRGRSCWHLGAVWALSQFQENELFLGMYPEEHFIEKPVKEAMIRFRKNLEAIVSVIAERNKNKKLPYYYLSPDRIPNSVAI

IC50 [1] [µM]	IC50 [2] [µM]	Structure (SMILES)
7	0.57	CNC(=S)N(O)C(C)c1c(C)n(C(=O)c2ccc(Cl)cc2)c2ccc(OC)cc12 (configuration not stated)
15	1.4	COc1ccc2c(c1)c(CN(O)C(C)=O)c(C)n2C(=O)c1ccc(Cl)cc1
> 20	0.34	COc1ccc2c(c1)c(CN(O)C(N)=O)c(C)n2C(=O)c1ccc(Cl)cc1
2.4	0.83	COc1ccc2c(c1)c(C(C)N(O)C(C)=O)c(C)n2C(=O)c1ccc(Cl)cc1 (configuration not stated)
7.1	–	CNC(=S)N(O)Cc1c(C)n(C(=O)c2ccc(Cl)cc2)c2ccc(OC)cc12
0.89	1.4	COc1ccc2c(c1)c(C(C)N(O)C(N)=O)c(C)n2C(=O)c1ccc(Cl)cc1 (configuration not stated)
–	> 100	COc1ccc2c(c1)c(CC(=O)O)c(C)n2C(=O)c1ccc(Cl)cc1 [INDOMETHACIN]
